ChEMBL document CHEMBL1132459, “Design of MKC-442 (emivirine) analogues with improved activity against drug-resistant HIV mutants” (J Med Chem, 1999)

Experiments:
Conditions in all cases: Homo sapiens
HeLa [1] = experiment: Compound was tested for its cytotoxicity depending on the viability of mock-infected cells; assay type: functional
HeLa [2] = experiment: Compound was tested for its inhibition of HIV-1 induced focus formation in MAGI-CCR5 cells in strains like IIIB; assay type: functional, cell-based
HeLa [3] = experiment: Compound was tested for its inhibition of HIV-1 induced focus formation in MAGI-CCR5 cells in strains like IIIB-R(Y181C); assay type: functional, cell-based
HeLa [4] = experiment: Compound was tested for its inhibition of HIV-1 induced focus formation in MAGI-CCR5 cells in strains like NL4-3; assay type: functional, cell-based
HeLa [5] = experiment: Compound was tested for its inhibition of HIV-1 induced focus formation in MAGI-CCR5 cells in strains like NL4-3K103N; assay type: functional, cell-based

CCOCn1c(SC2CCCCC2)c(C(C)C)c(=O)[nH]c1=O
CC50 (HeLa [1]): 74800 nM | EC50 (HeLa [2]): 3 nM | EC50 (HeLa [3]): 270 nM | EC50 (HeLa [4]): 3 nM | EC50 (HeLa [5]): 250 nM

CCOCn1c(Cc2ccccc2)c(C(C)C)c(=O)[nH]c1=O [EMIVIRINE]
CC50 (HeLa [1]): > 100000 nM | EC50 (HeLa [2]): 4 nM | EC50 (HeLa [3]): 13400 nM | EC50 (HeLa [4]): 1 nM | EC50 (HeLa [5]): 1260 nM

CCOCn1c(Cc2cc(C)cc(C)c2)c(C(C)C)c(=O)[nH]c1=O
CC50 (HeLa [1]): 52500 nM | EC50 (HeLa [2]): 1 nM | EC50 (HeLa [3]): 180 nM | EC50 (HeLa [4]): 1 nM | EC50 (HeLa [5]): 40 nM
